Earlier results as cited in patent US20180027805A1, “ACID HERBICIDE-CONTAINING COMPOSITIONS, PRECURSORS, DERIVATIVES, AND METHODS” (priority 2015, published 2018).

| Molecule | pKa |
| --- | --- |
| O=C(O)CCCOc1ccc(Cl)cc1Cl [2,4-DB] | 4.8 |
| O=C(O)c1cc(Oc2ccc(C(F)(F)F)cc2Cl)ccc1[N+](=O)[O-] [Acifluorfen] | 3.86 |
| N#Cc1cc(Br)c(O)c(Br)c1 [Bromoxynil] | 4.06 |
| COc1c(Cl)ccc(Cl)c1C(=O)O [Dicamba, 3,6-dichloro-O-anisic acid] | 1.87 |
| CC(Oc1ccc(Oc2ccc(Cl)cc2Cl)cc1)C(=O)O (centres unmarked) [Diclofop] | 3.57 |
| C[C@@H](Oc1ccc(Oc2ccc(C(F)(F)F)cn2)cc1)C(=O)O [Fluazifop-p] | 2.98 |
| CC(Oc1ccc(Oc2ncc(C(F)(F)F)cc2Cl)cc1)C(=O)O (centres unmarked) [Haloxyfop] | 4.33 |
| CC(C)C1(C)N=C(c2nc3ccccc3cc2C(=O)O)NC1=O (centres unmarked) [Imazaquin] | 3.8 |
| Nc1c(Cl)c(Cl)nc(C(=O)O)c1Cl [Picloram] | 2.3 |
| O=C(O)COc1nc(Cl)c(Cl)cc1Cl [Triclopyr, 3,5,6-trichloro-2-pyridyloxyacetic acid] | 2.68 |
| Imazamethbenz | 2.9 |
